Structures can show the parent of a compound that is named as a salt.
How the values were obtained:
[1] = system: hereditary angioneurotic edema; details: The New England Journal of Medicine, 286, 808-812 (1972); cited from earlier work
complement system = details: British Journal of Experimental Pathology, 33, 327-339 (1952); Clin. Exp. Immunol., 10, 127-138 (1972); cited from earlier work
[2] = system: late components of human complement (C3-C9); assay: Test, Code 035 (C3-C9 inhibitor): lysis of EAC 142; assay type: cell-based; details: activity in wells, twofold serial dilution assay; higher well number indicates higher activity
Text: (§1) An active inhibitor protects C2 from C1 and C4; (ii) Test, Code 035 (C3-C9 inhibitor)-This test determines the ability of the late components of human complement (C3-C9) to lyse EAC 142 in the presence of appropriate dilutions of the test compound. An active inhibitor protects EAC 142 from lysis by human C3-C9; (iii) Test, Code 036 (C-Shunt inhibitor)--In this test human erythrocytes rendered fragile are lysed in autologous serum via the shunt pathway activated by cobra venom factor in the presence of appropriate dilutions of the test compound. Inhibition of the shunt pathway results in failure of lysis; (iv) Forssman Vasculitis Test--Here, the well known complement dependent lesion, Forssman vasculitis, is produced in guinea pigs by intradermal injection of rabbit anti-Forssman antiserum. The lesion is measured in terms of diameter, edema and hemorrhage and the extent to which a combined index of these is inhibited by prior intraperitoneal injection of the test compound at 200 mg/kg is then reported, unless otherwise stated; (v) Forssman Shock Test--Lethal shock is produced in guinea pigs by an i.v. injection of anti-Forssman antiserum and the harmonic mean death time of treated guinea pigs is compared with that of simultaneous controls; (vi) Complement Level Reduction Test--In this test, the above dosed guinea pigs, or others, are bled for serum and the complement level is determined in undiluted serum by the capillary tube method of U.S. Pat. No. 3,876,376 and compared to undosed control guinea pigs; and (vii) Cap 50 Test--Here, appropriate amounts of the test compound are added to a pool of guinea pig serum in vitro, after which the undiluted serum capillary tube assay referred to above is run. The concentration of compound inhibiting 50% is reported.
(§2) With reference to Table I, guinea pigs weighing about 300 g were dosed intravenously (i.v.) or intraperitoneally (i.p.) with 200 mg/kg of the test compound dissolved in saline and adjusted to pH 7-8. […] Percent inhibition was calculated by comparison with simultaneous controls. […]

whole complement = assay: In vivo complement inhibition in dosed guinea pigs (whole complement, capillary tube assay); details: i.p., 200 mg/kg
Text: as §1
With reference to Table I, guinea pigs weighing about 300 g were dosed intravenously (i.v.) or intraperitoneally (i.p.) with 200 mg/kg of the test compound dissolved in saline and adjusted to pH 7-8. One hour after dosing, the guinea pigs were decapitated, blood was collected and the serum separated. The serum was tested for whole complement using the capillary tube assay. Percent inhibition was calculated by comparison with simultaneous controls. The results appear in Table I together with results of tests, code 026, 035, 036, Cap 50, % inhibition and Forssman shock.

shunt pathway = assay: Test, Code 036 (C-Shunt inhibitor): lysis of human erythrocytes via shunt pathway activated by cobra venom factor; assay type: cell-based; details: activity in wells, twofold serial dilution assay; higher well number indicates higher activity
Text: as §1, §2

human C1 = target: T1, human C1 (Homo sapiens, UniProt P09871); assay: Test, Code 026 (C1 inhibitor); assay type: biochemical; details: activity in wells, twofold serial dilution assay; higher well number indicates higher activity
T1 construct: hemolytic test of fluid-phase C2 destruction in presence of C4
Text: as §1, §2

human serum complement [3] = details: as judged by the reduction in total hemolytic complement activity, Pathologie Biologie, 25, 33-36 (1977); cited from earlier work
human serum complement [4] = details: as judged by the reduction in total hemolytic complement activity, Pathologie Biologie, 25, 33-36 (1977); cited from earlier work; remark: listed apart in the source

T1 sequence (P09871 16-688): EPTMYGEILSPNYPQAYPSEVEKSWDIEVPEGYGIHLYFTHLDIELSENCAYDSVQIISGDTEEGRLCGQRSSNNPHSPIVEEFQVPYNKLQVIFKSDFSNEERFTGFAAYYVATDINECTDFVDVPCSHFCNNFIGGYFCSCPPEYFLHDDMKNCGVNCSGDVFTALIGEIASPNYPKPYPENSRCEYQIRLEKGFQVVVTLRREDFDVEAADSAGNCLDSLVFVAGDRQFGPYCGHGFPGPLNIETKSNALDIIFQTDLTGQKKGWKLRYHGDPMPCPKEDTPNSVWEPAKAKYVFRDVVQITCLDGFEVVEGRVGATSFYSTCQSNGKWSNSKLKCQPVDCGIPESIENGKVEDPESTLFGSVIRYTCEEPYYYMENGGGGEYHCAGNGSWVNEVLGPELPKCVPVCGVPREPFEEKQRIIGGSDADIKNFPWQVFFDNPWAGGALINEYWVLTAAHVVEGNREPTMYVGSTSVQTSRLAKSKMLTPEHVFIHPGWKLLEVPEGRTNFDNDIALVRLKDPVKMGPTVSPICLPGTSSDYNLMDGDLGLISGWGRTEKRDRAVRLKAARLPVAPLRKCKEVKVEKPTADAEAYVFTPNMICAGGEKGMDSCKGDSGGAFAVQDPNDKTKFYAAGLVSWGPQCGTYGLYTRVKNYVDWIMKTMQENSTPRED
T1 sequence (P00736 18-705 partner): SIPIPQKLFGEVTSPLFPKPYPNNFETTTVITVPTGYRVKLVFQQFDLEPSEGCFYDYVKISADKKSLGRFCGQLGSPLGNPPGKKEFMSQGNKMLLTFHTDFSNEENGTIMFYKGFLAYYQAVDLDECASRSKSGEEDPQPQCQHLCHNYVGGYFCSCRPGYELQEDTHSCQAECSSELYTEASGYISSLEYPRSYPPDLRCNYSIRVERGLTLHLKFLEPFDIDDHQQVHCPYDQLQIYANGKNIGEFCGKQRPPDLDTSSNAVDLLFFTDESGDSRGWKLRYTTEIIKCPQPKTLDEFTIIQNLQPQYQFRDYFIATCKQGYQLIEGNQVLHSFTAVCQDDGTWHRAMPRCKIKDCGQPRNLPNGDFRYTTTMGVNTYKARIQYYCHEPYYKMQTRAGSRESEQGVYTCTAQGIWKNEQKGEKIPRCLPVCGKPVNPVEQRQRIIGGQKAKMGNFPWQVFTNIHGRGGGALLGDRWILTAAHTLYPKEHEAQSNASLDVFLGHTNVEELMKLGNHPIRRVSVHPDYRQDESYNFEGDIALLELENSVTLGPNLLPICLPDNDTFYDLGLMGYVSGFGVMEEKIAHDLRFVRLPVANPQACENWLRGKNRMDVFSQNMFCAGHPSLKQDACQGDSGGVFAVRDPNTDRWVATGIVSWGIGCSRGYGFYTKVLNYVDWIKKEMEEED
T1 sequence (P02745 23-245 partner): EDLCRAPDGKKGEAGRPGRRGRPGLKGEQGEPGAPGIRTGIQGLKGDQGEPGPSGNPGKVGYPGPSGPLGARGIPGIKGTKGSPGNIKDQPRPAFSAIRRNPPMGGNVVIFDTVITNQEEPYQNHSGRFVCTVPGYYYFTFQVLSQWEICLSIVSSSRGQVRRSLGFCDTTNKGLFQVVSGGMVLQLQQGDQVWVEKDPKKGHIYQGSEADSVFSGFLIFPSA
T1 sequence (P02746 28-253 partner): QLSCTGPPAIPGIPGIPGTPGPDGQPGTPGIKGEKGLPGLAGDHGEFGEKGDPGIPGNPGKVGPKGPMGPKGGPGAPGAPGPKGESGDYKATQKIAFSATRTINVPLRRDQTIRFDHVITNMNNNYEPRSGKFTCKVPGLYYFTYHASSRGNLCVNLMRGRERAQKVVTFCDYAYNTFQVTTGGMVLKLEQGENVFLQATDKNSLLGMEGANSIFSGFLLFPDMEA
T1 sequence (P02747 29-245 partner): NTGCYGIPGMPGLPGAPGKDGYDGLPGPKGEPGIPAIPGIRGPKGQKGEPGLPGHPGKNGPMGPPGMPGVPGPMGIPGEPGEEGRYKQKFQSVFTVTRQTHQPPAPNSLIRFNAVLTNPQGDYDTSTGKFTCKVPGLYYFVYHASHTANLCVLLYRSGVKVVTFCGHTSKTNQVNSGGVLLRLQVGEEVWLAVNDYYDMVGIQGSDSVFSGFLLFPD

| Compound | treatment of hereditary angioneurotic edema [1] | effect on the complement system (complement system) | C-Late 035* Wells [2] | In Vivo Activity (Guinea Pig) % Inhibition, Intraperitoneal, 30 minutes (whole complement) [%] | In Vivo Activity (Guinea Pig) % Inhibition, Intraperitoneal, 60 minutes (whole complement) [%] | In Vivo Activity (Guinea Pig) % Inhibition, Intraperitoneal, 120 minutes (whole complement) [%] | Shunt Inhibition 036* Wells (shunt pathway) | C1 026* Wells (human C1) | other results |
| --- | --- | --- | --- | --- | --- | --- | --- | --- | --- |
| NCCCCCC(=O)O [epsilon-aminocaproic acid] | used with success | – | – | – | – | – | – | – | – |
| heparin | – | anticomplementary effect | – | – | – | – | – | – | – |
| O=C(Nc1cc(C(=O)Nc2cc(C(=O)O)cc(C(=O)Nc3ccc(S(=O)(=O)O)c4cc(S(=O)(=O)O)cc(S(=O)(=O)O)c34)c2)cc(C(=O)Nc2cc(C(=O)O)cc(C(=O)Nc3ccc(S(=O)(=O)O)c4cc(S(=O)(=O)O)cc(S(=O)(=O)O)c34)c2)c1)Nc1cc(C(=O)Nc2cc(C(=O)O)cc(C(=O)Nc3ccc(S(=O)(=O)O)c4cc(S(=O)(=O)O)cc(S(=O)(=O)O)c34)c2)cc(C(=O)Nc2cc(C(=O)O)cc(C(=O)Nc3ccc(S(=O)(=O)O)c4cc(S(=O)(=O)O)cc(S(=O)(=O)O)c34)c2)c1 [3,3',3",3'"-{Ureylenebis[s-phenenylbis(carbonylimino]}tetrakis[5-(4,6,8-trisulfo-1-naphthyl)carbamoyl]benzoic acid dodecasodium salt] | – | – | +2 Wells | -90 | -94 | -89 | +5 Wells | +7 Wells | – |
| NC[C@H]1CC[C@H](C(=O)O)CC1 [tranexamic acid] | used with success | – | – | – | – | – | – | – | – |
| Nc1cc(C(=O)Nc2cc(C(=O)O)cc(C(=O)Nc3ccc(S(=O)(=O)O)c4cc(S(=O)(=O)O)cc(S(=O)(=O)O)c34)c2)cc(C(=O)Nc2cc(C(=O)O)cc(C(=O)Nc3ccc(S(=O)(=O)O)c4cc(S(=O)(=O)O)cc(S(=O)(=O)O)c34)c2)c1 [3,3'-[5-Amino-m-phenylenebis(carbonylimino)]bis{5-[4,6,8-trisulfo-1-naphthyl)carbamoyl]}benzoic acid hexasodium salt] | – | – | +2 Wells | -40 | -61 | -61 | +2 Wells | +4 Wells | – |
| Cc1ccc(C(=O)Nc2ccc(S(=O)(=O)O)c3cc(S(=O)(=O)O)cc(S(=O)(=O)O)c23)cc1NC(=O)c1cc(NC(=O)Nc2cc(C(=O)Nc3cc(C(=O)Nc4ccc(S(=O)(=O)O)c5cc(S(=O)(=O)O)cc(S(=O)(=O)O)c45)ccc3C)cc(C(=O)Nc3cc(C(=O)Nc4ccc(S(=O)(=O)O)c5cc(S(=O)(=O)O)cc(S(=O)(=O)O)c45)ccc3C)c2)cc(C(=O)Nc2cc(C(=O)Nc3ccc(S(=O)(=O)O)c4cc(S(=O)(=O)O)cc(S(=O)(=O)O)c34)ccc2C)c1 [8,8',8",8'"-{Ureylenebis{s-phenenylbis[carbonylimino(4-methyl-3,1-phenylene)carbonylimino]}}tetra-1,3,5-naphthalenetrisulfonic acid dodecasodium salt] | – | – | +3 Wells | -62 | -84 | -95 | +4 Wells | +6 Wells | – |
| pentosan-poly-sulfoester | – | – | – | – | – | – | – | – | anticomplementary activity on human serum in vivo (human serum complement [3]): anticomplementary activity; anticomplementary activity on human serum in vitro (human serum complement [4]): anticomplementary activity |
| Cc1ccc(C(=O)Nc2ccc(S(=O)(=O)O)c3cc(S(=O)(=O)O)cc(S(=O)(=O)O)c23)cc1NC(=O)c1cccc(NC(=O)Nc2cccc(C(=O)Nc3cc(C(=O)Nc4ccc(S(=O)(=O)O)c5cc(S(=O)(=O)O)cc(S(=O)(=O)O)c45)ccc3C)c2)c1 [Suramin] | used with success | competitive inhibitor of the complement system | – | – | – | – | – | – | – |
| Nc1ccc2cc(S(=O)(=O)O)cc(O)c2c1N=Nc1ccc(NC(=O)Nc2ccc(N=Nc3c(N)ccc4cc(S(=O)(=O)O)cc(O)c34)c(S(=O)(=O)O)c2)cc1S(=O)(=O)O [chlorazol fast pink, 3,3'-ureylenebis-[6-(2-amino-8-hydroxy-6-sulfo-1-naphthylazo)]benzenesulfonic acid, tetrasodium salt] | – | anticomplementary effect | – | – | – | – | – | – | – |

Reference: US4218395A, “Ureylene naphthalene sulfonic acids” (American Cyanamid Company, priority 1978, dated 1980)
